Columns and labels:
[1] = test system: Heteranthera limosa; test: Test B flooded paddy test; format: in vivo; details: Flood, 250 g ai/ha; 0 to 100 scale where 0 is no effect and 100 is complete control
In short: (§1)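 Visual ratings on a 0 to 100 scale, where 100 means complete control, compared treated plants with controls after 13 to 15 days in a greenhouse. Treatment went into paddy water 3 cm deep over the soil, applied to plants at the 2-leaf stage.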

[2] = test system: yellow nutsedge; test: Test C postemergence; format: in vivo, Cyperus esculentus; details: for Plant response rating (0 to 100), Nutsedge, Yellow: 16 g ai/ha, 0 is no effect, 100 is complete control; for Nutsedge, Yellow plant response rating: 31 g ai/ha; for Nutsedge, Yellow plant response rating / Plant response rating, Nutsedge, Yellow: scale 0 to 100 (0 no effect, 100 complete control)
In short: (§2)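 Greenhouse herbicide screen. Pre: seeded loam/sand, sprayed at planting. Post: 1–4 leaf plants (2–18 cm) in peat-based mix. Formulation: solvent mixture + surfactant, non-phytotoxic. Readout: visual % control vs untreated, 13–15 d; dash = not tested.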

[3] = test system: corn; test: Test A preemergence; format: in vivo, Zea mays
In short: (§3)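 Visual injury scored 0–100 (100 = complete control) against untreated controls about 10 days after treatment in a greenhouse. Test chemicals, formulated with surfactant in non-phytotoxic solvent, were sprayed on soil preemergence or on 2-10 cm, one- to two-leaf plants postemergence.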

[4] = test system: wheat, winter; test: Test C postemergence; format: in vivo, Triticum aestivum; details: for Plant response rating (0 to 100), Wheat: 16 g ai/ha, 0 is no effect, 100 is complete control; for Wheat plant response rating: 31 g ai/ha; for Wheat plant response rating / Plant response rating, Wheat: scale 0 to 100 (0 no effect, 100 complete control)
In short: as §2

[5] = test system: ragweed; test: Test C postemergence; format: in vivo, Ambrosia elatior; details: for Plant response rating (0 to 100), Ragweed: 16 g ai/ha, 0 is no effect, 100 is complete control; for Ragweed plant response rating: 31 g ai/ha; for Ragweed plant response rating / Plant response rating, Ragweed: scale 0 to 100 (0 no effect, 100 complete control)
In short: as §2

[6] = test system: barnyardgrass; test: Test B flooded paddy test; format: in vivo, Echinochloa crus-galli; details: Flood, 250 g ai/ha; 0 to 100 scale where 0 is no effect and 100 is complete control
In short: as §1

[7] = test system: rice; test: Test B flooded paddy test; format: in vivo, Oryza sativa; details: Flood, 250 g ai/ha; 0 to 100 scale where 0 is no effect and 100 is complete control
In short: as §1

[8] = test system: soybean; test: Test C postemergence; format: in vivo, Glycine max; details: for Plant response rating (0 to 100), Soybean: 16 g ai/ha, 0 is no effect, 100 is complete control; for Soybean plant response rating: 31 g ai/ha; for Soybean plant response rating / Plant response rating, Soybean: scale 0 to 100 (0 no effect, 100 complete control)
In short: as §2

[9] = test system: morningglory; test: Test A preemergence; format: in vivo, Ipomoea spp.
In short: as §3

[10] = test system: large (Lg) crabgrass; test: Test A preemergence; format: in vivo, Digitaria sanguinalis
In short: as §3

[11] = test system: wheat; test: Test A postemergence; format: in vivo, Triticum aestivum
In short: as §3

[12] = test system: velvetleaf; test: Test A preemergence; format: in vivo, Abutilon theophrasti
In short: as §3

[13] = test system: giant foxtail; test: Test C postemergence; format: in vivo, Setaria faberii; details: for Plant response rating (0 to 100), Foxtail, Giant: 16 g ai/ha, 0 is no effect, 100 is complete control; for Foxtail, Giant plant response rating: 31 g ai/ha; for Foxtail, Giant plant response rating / Plant response rating, Foxtail, Giant: scale 0 to 100 (0 no effect, 100 complete control)
In short: as §2

[14] = test system: barnyardgrass; test: Test A postemergence; format: in vivo, Echinochloa crus-galli
In short: as §3

[15] = test system: corn; test: Test C postemergence; format: in vivo, Zea mays; details: for Plant response rating (0 to 100), Corn: 16 g ai/ha, 0 is no effect, 100 is complete control; for Corn plant response rating: 31 g ai/ha; for Corn plant response rating / Plant response rating, Corn: scale 0 to 100 (0 no effect, 100 complete control)
In short: as §2

[16] = test system: morningglory; test: Test C postemergence; format: in vivo, Ipomoea coccinea; details: for Plant response rating (0 to 100), Morningglory: 16 g ai/ha, 0 is no effect, 100 is complete control; for Morningglory plant response rating: 31 g ai/ha; for Morningglory plant response rating / Plant response rating, Morningglory: scale 0 to 100 (0 no effect, 100 complete control)
In short: as §2

[17] = test system: sedge, umbrella; test: Test B flooded paddy test; format: in vivo, Cyperus difformis; details: Flood, 250 g ai/ha; 0 to 100 scale where 0 is no effect and 100 is complete control
In short: as §1

[18] = postemergence, visual rating, 13 to 15 days
[19] = 125 g ai/ha, postemergence, visual rating
[20] = Postemergence, 62 g ai/ha, 13 to 15 days
[21] = 1000 g ai/ha, 0 to 100 scale, 0 no effect, 100 complete control, approx. 10 days
[22] = 1000 g ai/ha, 0 to 100 scale, 0 no effect, 100 complete control
[23] = 500 g ai/ha, 0 to 100 scale where 0 is no effect and 100 is complete control
[24] = 125 g ai/ha, 0 to 100 scale where 0 is no effect and 100 is complete control

With Clc1cnc(Oc2ccccc2-n2cc(Br)nn2)nc1 [Compound 223] the “Plant response rating, Ducksalad” value [1] was 90, the “Plant response rating (0 to 100), Nutsedge, Yellow” value ([2]; postemergence) was 5 and the “Nutsedge, Yellow plant response rating” value [2, 18] was 5. For the same compound, the “Plant response rating, Nutsedge, Yellow” value [2, 19] was 5, the “Plant response rating, Nutsedge, Yellow” value [2, 20] was 5 and the “Corn plant response rating” value [3, 21] was 80. For the same compound, the “Plant response rating (0 to 100), Wheat” value ([4]; postemergence) was 0, the “Wheat plant response rating” value [4, 18] was 0 and the “Plant response rating, Wheat” value [4, 19] was 5. For the same compound, the “Plant response rating, Wheat” value [4, 20] was 0, the “Plant response rating (0 to 100), Ragweed” value ([5]; postemergence) was 10 and the “Ragweed plant response rating” value [5, 18] was 20. The “Plant response rating, Ragweed” value [5, 19] was 75, the “Plant response rating, Ragweed” value [5, 20] was 55 and the “Plant response rating, Barnyardgrass” value [6] was 35. For the same compound, the “Plant response rating, Rice” value [7] was 50, the “Plant response rating (0 to 100), Soybean” value ([8]; postemergence) was 60 and the “Soybean plant response rating” value [8, 18] was 65. For the same compound, the “Plant response rating, Soybean” value [8, 19] was 95, the “Plant response rating, Soybean” value [8, 20] was 85 and the “Morningglory plant response rating” value [9, 21] was 100. For the same compound, the “Crabgrass, Large plant response rating” value [10, 21] was 100, the “Plant response rating, Wheat” value [11, 22] was 70 and the “Velvetleaf plant response rating” value [12, 21] was 100. The “Plant response rating (0 to 100), Foxtail, Giant” value ([13]; postemergence) was 5, the “Foxtail, Giant plant response rating” value [13, 18] was 5 and the “Plant response rating, Foxtail, Giant” value [13, 19] was 5. The “Plant response rating, Foxtail, Giant” value [13, 20] was 5, the “Plant response rating, Barnyardgrass” value [14, 22] was 100 and the “Plant response rating (0 to 100), Corn” value ([15]; postemergence) was 5. For the same compound, the “Corn plant response rating” value [15, 18] was 5, the “Plant response rating, Corn” value [15, 19] was 5 and the “Plant response rating, Corn” value [15, 20] was 5. The “Plant response rating (0 to 100), Morningglory” value ([16]; postemergence) was 5, the “Morningglory plant response rating” value [16, 18] was 45 and the “Plant response rating, Morningglory” value [16, 19] was 80. For the same compound, the “Plant response rating, Morningglory” value [16, 20] was 70 and the “Plant response rating, Sedge, Umbrella” value [17] was 85.
With FC(F)c1cnn(-c2c(Br)cccc2Oc2ncc(Cl)cn2)c1 [Compound 232] the “Plant response rating, Ducksalad” value [1] was 95, the “Plant response rating (0 to 100), Nutsedge, Yellow” value ([2]; postemergence) was 5 and the “Nutsedge, Yellow plant response rating” value [2, 18] was 5. The “Plant response rating, Nutsedge, Yellow” value [2, 19] was 5, the “Plant response rating, Nutsedge, Yellow” value [2, 20] was 5 and the “Corn plant response rating (0 to 100 scale)” value ([3]; 125 g ai/ha) was 0. The “Corn plant response rating” value [3, 23] was 60, the “Plant response rating (0 to 100), Wheat” value ([4]; postemergence) was 0 and the “Wheat plant response rating” value [4, 18] was 0. The “Plant response rating, Wheat” value [4, 19] was 5, the “Plant response rating, Wheat” value [4, 20] was 0 and the “Plant response rating (0 to 100), Ragweed” value ([5]; postemergence) was 25. The “Ragweed plant response rating” value [5, 18] was 35, the “Plant response rating, Ragweed” value [5, 19] was 60 and the “Plant response rating, Ragweed” value [5, 20] was 50. For the same compound, the “Plant response rating, Barnyardgrass” value [6] was 10, the “Plant response rating, Rice” value [7] was 35 and the “Plant response rating (0 to 100), Soybean” value ([8]; postemergence) was 30. For the same compound, the “Soybean plant response rating” value [8, 18] was 55, the “Plant response rating, Soybean” value [8, 19] was 75 and the “Plant response rating, Soybean” value [8, 20] was 70. For the same compound, the “Morningglory plant response rating (0 to 100 scale)” value ([9]; 125 g ai/ha) was 20, the “Morningglory plant response rating” value [9, 23] was 90 and the “Crabgrass, Large plant response rating (0 to 100 scale)” value ([10]; 125 g ai/ha) was 90. For the same compound, the “Crabgrass, Large plant response rating” value [10, 23] was 100, the “Wheat plant response rating” value [11, 24] was 20 and the “Plant response rating, Wheat” value [11, 23] was 50. For the same compound, the “Velvetleaf plant response rating (0 to 100 scale)” value ([12]; 125 g ai/ha) was 20, the “Velvetleaf plant response rating” value [12, 23] was 100 and the “Plant response rating (0 to 100), Foxtail, Giant” value ([13]; postemergence) was 5. For the same compound, the “Foxtail, Giant plant response rating” value [13, 18] was 5, the “Plant response rating, Foxtail, Giant” value [13, 19] was 15 and the “Plant response rating, Foxtail, Giant” value [13, 20] was 5. The “Barnyardgrass plant response rating” value [14, 24] was 30, the “Plant response rating, Barnyardgrass” value [14, 23] was 90 and the “Plant response rating (0 to 100), Corn” value ([15]; postemergence) was 5. The “Corn plant response rating” value [15, 18] was 10, the “Plant response rating, Corn” value [15, 19] was 15 and the “Plant response rating, Corn” value [15, 20] was 10. The “Plant response rating (0 to 100), Morningglory” value ([16]; postemergence) was 70, the “Morningglory plant response rating” value [16, 18] was 80 and the “Plant response rating, Morningglory” value [16, 19] was 85. The “Plant response rating, Morningglory” value [16, 20] was 55 and the “Plant response rating, Sedge, Umbrella” value [17] was 80.
